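Each compound was tested at five concentrations against cells in 96-well plates for 48 hours. Here, GI50 denotes the concentration required for 50% inhibition of growth.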 Activity calls are given as the source filed them. Cut-off read from the data, not from the text of the source: active = GI50 up to about 1.1 µM and inactive = higher.
Assays:
Test in all cases: DTP human tumour cell line panel, 48 h
[1] = test system: SK-MEL-2
[2] = test system: Malme-3M
[3] = test system: SF-268
[4] = test system: DU-145
[5] = test system: SF-539
[6] = test system: MCF7
[7] = test system: SW-620
[8] = test system: ACHN
[9] = test system: T47D
[10] = test system: MDA-MB-435
[11] = test system: CAKI-1
[12] = test system: HOP-62
[13] = test system: U-251
[14] = test system: COLO 205
[15] = test system: OVCAR-8
[16] = test system: SNB-75
[17] = test system: NCI-H460
[18] = test system: UO-31
[19] = test system: NCI-H23
[20] = test system: DLD-1

| SMILES | GI50 [1] | GI50 [2] | GI50 [3] | GI50 [4] | GI50 [5] | GI50 [6] | GI50 [7] | GI50 [8] | GI50 [9] | GI50 [10] | GI50 [11] | GI50 [12] | GI50 [13] | GI50 [14] | GI50 [15] | GI50 [16] | GI50 [17] | GI50 [18] | GI50 [19] | GI50 [20] |
| --- | --- | --- | --- | --- | --- | --- | --- | --- | --- | --- | --- | --- | --- | --- | --- | --- | --- | --- | --- | --- |
| C=C1C(=O)C2=C[C@H]1C[C@H](O)C(=O)[C@]1(C)CCCC(C)(C)[C@H]1C[C@H]2O | 7.19 µM (inactive) | 0.83 µM (active) | 4.38 µM (inactive) | 1.77 µM (inactive) | 1.33 µM (inactive) | 0.388 µM (active) | 0.583 µM (active) | 0.452 µM (active) | 1.11 µM (active) | 2.65 µM (inactive) | 1.48 µM (inactive) | 12.9 µM (inactive) | 1.32 µM (inactive) | 0.638 µM (active) | 2.33 µM (inactive) | 5.58 µM (inactive) | 2.88 µM (inactive) | 2.06 µM (inactive) | 1.63 µM (inactive) | – |
| CCOc1ccc2nc3nc(O)nc(C)c3c(NC(C)(CO)CO)c2c1 | > 100 µM (inactive) | > 100 µM (inactive) | > 100 µM (inactive) | > 100 µM (inactive) | > 100 µM (inactive) | 4.08 µM (inactive) | > 100 µM (inactive) | > 100 µM (inactive) | > 100 µM (inactive) | > 100 µM (inactive) | > 100 µM (inactive) | > 100 µM (inactive) | > 100 µM (inactive) | > 100 µM (inactive) | > 100 µM (inactive) | > 100 µM (inactive) | > 100 µM (inactive) | > 100 µM (inactive) | > 100 µM (inactive) | – |
| COCCOC1=C(Cl)C(=O)c2c(O)ccc(O)c2C1=O | 5.98 µM (inactive) | 0.955 µM (active) | 4.71 µM (inactive) | 5.26 µM (inactive) | 2.16 µM (inactive) | 1.21 µM (inactive) | 0.444 µM (active) | 1.11 µM (active) | 2.47 µM (inactive) | 1.02 µM (active) | 0.438 µM (active) | 3.33 µM (inactive) | 4.75 µM (inactive) | 0.838 µM (active) | 1.63 µM (inactive) | 5.55 µM (inactive) | 5.52 µM (inactive) | 1.71 µM (inactive) | 2.25 µM (inactive) | – |
| O=C(CC(=O)Nc1ccc(Cl)cc1)NNCC(=O)Nc1nc(-c2ccccc2)cs1 | – | – | > 100 µM (inactive) | – | > 100 µM (inactive) | – | > 100 µM (inactive) | – | – | – | – | > 100 µM (inactive) | > 100 µM (inactive) | > 100 µM (inactive) | > 100 µM (inactive) | > 100 µM (inactive) | > 100 µM (inactive) | – | > 100 µM (inactive) | > 100 µM (inactive) |
| C[Si](C)(C)C(CCCCSc1ccccc1)(Sc1ccccc1)Sc1ccccc1 | > 100 µM (inactive) | – | > 100 µM (inactive) | – | > 100 µM (inactive) | – | > 100 µM (inactive) | > 100 µM (inactive) | – | – | > 100 µM (inactive) | – | 85.5 µM (inactive) | > 100 µM (inactive) | > 100 µM (inactive) | > 100 µM (inactive) | > 100 µM (inactive) | > 100 µM (inactive) | 68.1 µM (inactive) | > 100 µM (inactive) |
| NC(=S)N1N=C(c2ccc3c(c2)CCC3)CC1c1ccccc1 (stereo not drawn) | 13.7 µM (inactive) | 22.6 µM (inactive) | 30.8 µM (inactive) | 23 µM (inactive) | 18.3 µM (inactive) | 8.45 µM (inactive) | 33.8 µM (inactive) | 27.9 µM (inactive) | 1.64 µM (inactive) | 20.2 µM (inactive) | 21.3 µM (inactive) | 24.9 µM (inactive) | 20.4 µM (inactive) | 18.3 µM (inactive) | 28.3 µM (inactive) | 18.1 µM (inactive) | 22.2 µM (inactive) | 29.9 µM (inactive) | 25.1 µM (inactive) | – |
| Cc1cc(Cl)nc2nc(Cl)c(N)cc12 | 14.9 µM (inactive) | 9.53 µM (inactive) | 2.29 µM (inactive) | 7.03 µM (inactive) | 4.71 µM (inactive) | 1.63 µM (inactive) | 2.04 µM (inactive) | 5.38 µM (inactive) | 3.21 µM (inactive) | 2.22 µM (inactive) | 0.354 µM (active) | 6.76 µM (inactive) | 2.05 µM (inactive) | 2.06 µM (inactive) | 2.67 µM (inactive) | 10.6 µM (inactive) | 2.38 µM (inactive) | 3.92 µM (inactive) | 7.24 µM (inactive) | – |
| Cc1ccc(C)c2sc3cc(=O)ccc-3nc12 | 53.3 µM (inactive) | – | 43.5 µM (inactive) | – | 32.2 µM (inactive) | – | 63.1 µM (inactive) | 30 µM (inactive) | – | – | 22 µM (inactive) | 28.7 µM (inactive) | 35.7 µM (inactive) | 63.8 µM (inactive) | 35.2 µM (inactive) | 55.5 µM (inactive) | 34.2 µM (inactive) | 45.5 µM (inactive) | 29 µM (inactive) | 45.9 µM (inactive) |
| S=C(N/N=C/c1ccccn1)Nc1ccc(Cl)cc1 | 2.14 µM (inactive) | 0.145 µM (active) | 0.05 µM (active) | 0.126 µM (active) | 0.364 µM (active) | 0.0489 µM (active) | 0.0528 µM (active) | 0.0455 µM (active) | 0.0169 µM (active) | 0.373 µM (active) | < 0.0125 µM (active) | 0.181 µM (active) | 0.0528 µM (active) | < 0.0175 µM (active) | 0.0333 µM (active) | 0.236 µM (active) | 0.0635 µM (active) | 0.0514 µM (active) | 0.104 µM (active) | – |
| CC(=O)OCC(OC(C)=O)C(OC(C)=O)C(/C=N\Nc1nc2ccccc2c(=O)[nH]1)=N\Nc1nc2ccccc2c(=O)[nH]1 (stereo not drawn) | > 100 µM (inactive) | > 100 µM (inactive) | > 100 µM (inactive) | > 100 µM (inactive) | > 100 µM (inactive) | > 100 µM (inactive) | > 100 µM (inactive) | > 100 µM (inactive) | 47 µM (inactive) | > 100 µM (inactive) | > 100 µM (inactive) | > 100 µM (inactive) | > 100 µM (inactive) | > 100 µM (inactive) | > 100 µM (inactive) | > 100 µM (inactive) | 22.3 µM (inactive) | > 100 µM (inactive) | > 100 µM (inactive) | – |
| COc1ccc(-c2c(C#N)c(=O)nc(SC)n2C2OCC(OC(C)=O)C(OC(C)=O)C2OC(C)=O)cc1 (stereo not drawn) | > 100 µM (inactive) | > 100 µM (inactive) | 55 µM (inactive) | > 100 µM (inactive) | > 100 µM (inactive) | > 100 µM (inactive) | 64.3 µM (inactive) | 75 µM (inactive) | 63.4 µM (inactive) | > 100 µM (inactive) | > 100 µM (inactive) | > 100 µM (inactive) | 57.8 µM (inactive) | > 100 µM (inactive) | 90.6 µM (inactive) | 95.9 µM (inactive) | 27.2 µM (inactive) | 38.6 µM (inactive) | > 100 µM (inactive) | – |
| O=C(NC/C(Cl)=C/Cl)Nc1cccc2c1CCCC2 | > 100 µM (inactive) | > 100 µM (inactive) | > 100 µM (inactive) | > 100 µM (inactive) | > 100 µM (inactive) | > 100 µM (inactive) | > 100 µM (inactive) | > 100 µM (inactive) | 97.9 µM (inactive) | > 100 µM (inactive) | 86.9 µM (inactive) | > 100 µM (inactive) | > 100 µM (inactive) | > 100 µM (inactive) | > 100 µM (inactive) | > 100 µM (inactive) | 83.8 µM (inactive) | > 100 µM (inactive) | > 100 µM (inactive) | – |
| CC(OC(=O)C(CC(=O)OC(C)(C)C)NC(=O)OC(C)(C)C)C(=O)OCc1ccccc1 (stereo not drawn) | > 100 µM (inactive) | > 100 µM (inactive) | > 100 µM (inactive) | > 100 µM (inactive) | > 100 µM (inactive) | > 100 µM (inactive) | > 100 µM (inactive) | > 100 µM (inactive) | > 100 µM (inactive) | > 100 µM (inactive) | > 100 µM (inactive) | > 100 µM (inactive) | > 100 µM (inactive) | > 100 µM (inactive) | > 100 µM (inactive) | > 100 µM (inactive) | > 100 µM (inactive) | > 100 µM (inactive) | > 100 µM (inactive) | – |
| C=CCn1c(=O)c(C)cn(/C(=C/C(=O)OCC)C(=O)OCC)c1=O | 23.2 µM (inactive) | 13.8 µM (inactive) | 18.9 µM (inactive) | 40.7 µM (inactive) | 23.2 µM (inactive) | 4.34 µM (inactive) | 3.85 µM (inactive) | 9.08 µM (inactive) | 11.9 µM (inactive) | 13.5 µM (inactive) | 1.85 µM (inactive) | 51.1 µM (inactive) | 14.4 µM (inactive) | 4.55 µM (inactive) | 17.6 µM (inactive) | 11.1 µM (inactive) | 25.4 µM (inactive) | 15.7 µM (inactive) | 16.1 µM (inactive) | – |
| Cc1ccc(/N=N/c2c(O)c3ccccc3[nH]c2=O)c(S(=O)(=O)N(C)C)c1 | > 100 µM (inactive) | > 100 µM (inactive) | > 100 µM (inactive) | > 100 µM (inactive) | > 100 µM (inactive) | > 100 µM (inactive) | > 100 µM (inactive) | > 100 µM (inactive) | > 100 µM (inactive) | > 100 µM (inactive) | > 100 µM (inactive) | > 100 µM (inactive) | > 100 µM (inactive) | > 100 µM (inactive) | > 100 µM (inactive) | > 100 µM (inactive) | > 100 µM (inactive) | > 100 µM (inactive) | > 100 µM (inactive) | – |
